In PubChem BioAssay (NCI):
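At the GI50, growth is halved. At the TGI there is no net growth.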

Assays:
Experiment in all cases: inhibition of tumour cell growth, NCI panel, 384-well format
MDA-MB-435 melanoma = system: MDA-MB-435 melanoma
MDA-MB-468 breast = system: MDA-MB-468 breast
NCI-H226 lung = system: NCI-H226 lung
NCI-H460 NSCLC = system: NCI-H460 NSCLC
NCI-H522 lung = system: NCI-H522 lung
NCI/ADR-RES ovarian = system: NCI/ADR-RES ovarian
OVCAR-4 ovarian = system: OVCAR-4 ovarian
OVCAR-5 ovarian = system: OVCAR-5 ovarian
OVCAR-8 ovarian = system: OVCAR-8 ovarian
PC-3 prostate = system: PC-3 prostate
RPMI-8226 leukemia = system: RPMI-8226 leukemia
RXF 393 renal = system: RXF 393 renal
SF-268 CNS = system: SF-268 CNS
SF-295 CNS = system: SF-295 CNS
SF-539 CNS = system: SF-539 CNS
SK-MEL-2 melanoma = system: SK-MEL-2 melanoma
SK-MEL-28 melanoma = system: SK-MEL-28 melanoma
SK-OV-3 ovarian = system: SK-OV-3 ovarian
SN12C renal = system: SN12C renal
SNB-19 CNS = system: SNB-19 CNS
SNB-75 CNS = system: SNB-75 CNS
SW-620 colon = system: SW-620 colon
U251 glioblastoma = system: U251 glioblastoma
UO-31 renal = system: UO-31 renal

O=S(=O)(c1ccc2c(c1)C(=NO)c1cc(S(=O)(=O)N3CCCCC3)ccc1-2)N1CCCCC1
TGI (MDA-MB-435 melanoma): 323 nM
GI50 (MDA-MB-468 breast): 58.4 nM
TGI (MDA-MB-468 breast): 171 nM
GI50 (NCI-H226 lung): 168 nM
TGI (NCI-H226 lung): 309 nM
GI50 (NCI-H460 NSCLC): 170 nM
TGI (NCI-H460 NSCLC): 314 nM
GI50 (NCI-H522 lung): 172 nM
TGI (NCI-H522 lung): 314 nM
GI50 (NCI/ADR-RES ovarian): 342 nM
TGI (NCI/ADR-RES ovarian): 1140 nM
GI50 (OVCAR-4 ovarian): 17.9 nM
TGI (OVCAR-4 ovarian): 34.4 nM
GI50 (OVCAR-5 ovarian): 184 nM
TGI (OVCAR-5 ovarian): 324 nM
GI50 (OVCAR-8 ovarian): 153 nM
TGI (OVCAR-8 ovarian): 288 nM
GI50 (PC-3 prostate): 165 nM
TGI (PC-3 prostate): 303 nM
GI50 (RPMI-8226 leukemia): 106 nM
TGI (RPMI-8226 leukemia): 226 nM
GI50 (RXF 393 renal): 118 nM
TGI (RXF 393 renal): 242 nM
GI50 (SF-268 CNS): 165 nM
TGI (SF-268 CNS): 303 nM
GI50 (SF-295 CNS): 176 nM
TGI (SF-295 CNS): 316 nM
GI50 (SF-539 CNS): 174 nM
TGI (SF-539 CNS): 317 nM
GI50 (SK-MEL-2 melanoma): 196 nM
TGI (SK-MEL-2 melanoma): 339 nM
GI50 (SK-MEL-28 melanoma): 171 nM
TGI (SK-MEL-28 melanoma): 309 nM
GI50 (SK-OV-3 ovarian): 169 nM
TGI (SK-OV-3 ovarian): 308 nM
GI50 (SN12C renal): 181 nM
TGI (SN12C renal): 323 nM
GI50 (SNB-19 CNS): 189 nM
TGI (SNB-19 CNS): 332 nM
GI50 (SNB-75 CNS): 184 nM
TGI (SNB-75 CNS): 324 nM
GI50 (SW-620 colon): 182 nM
TGI (SW-620 colon): 323 nM
GI50 (U251 glioblastoma): 189 nM
TGI (U251 glioblastoma): 341 nM
GI50 (UO-31 renal): 16 nM
TGI (UO-31 renal): 29.8 nM
